From ChEMBL document CHEMBL1201862, “PubChem BioAssay data set” (2004)
Activity calls are given as the source filed them.

Legend:
Protein S100-A4 = Protein S100-A4 (Homo sapiens, UniProt P26447); test: S100A4-myosin IIA binding inhibitor potency, dose response, biochemical, fluorescence polarization, cherry-picked hits (AID 687001); type: functional
[1] = biological target: ATP-dependent translocase ABCB1 (Homo sapiens, UniProt P08183); test: ABCB1 efflux pump inhibitor potency, dose response, Jurkat-DNR cells, JC-1, flow cytometry (AID 1689); type: functional
ATP-dependent translocase ABCB1, sequence (P08183 whole entry): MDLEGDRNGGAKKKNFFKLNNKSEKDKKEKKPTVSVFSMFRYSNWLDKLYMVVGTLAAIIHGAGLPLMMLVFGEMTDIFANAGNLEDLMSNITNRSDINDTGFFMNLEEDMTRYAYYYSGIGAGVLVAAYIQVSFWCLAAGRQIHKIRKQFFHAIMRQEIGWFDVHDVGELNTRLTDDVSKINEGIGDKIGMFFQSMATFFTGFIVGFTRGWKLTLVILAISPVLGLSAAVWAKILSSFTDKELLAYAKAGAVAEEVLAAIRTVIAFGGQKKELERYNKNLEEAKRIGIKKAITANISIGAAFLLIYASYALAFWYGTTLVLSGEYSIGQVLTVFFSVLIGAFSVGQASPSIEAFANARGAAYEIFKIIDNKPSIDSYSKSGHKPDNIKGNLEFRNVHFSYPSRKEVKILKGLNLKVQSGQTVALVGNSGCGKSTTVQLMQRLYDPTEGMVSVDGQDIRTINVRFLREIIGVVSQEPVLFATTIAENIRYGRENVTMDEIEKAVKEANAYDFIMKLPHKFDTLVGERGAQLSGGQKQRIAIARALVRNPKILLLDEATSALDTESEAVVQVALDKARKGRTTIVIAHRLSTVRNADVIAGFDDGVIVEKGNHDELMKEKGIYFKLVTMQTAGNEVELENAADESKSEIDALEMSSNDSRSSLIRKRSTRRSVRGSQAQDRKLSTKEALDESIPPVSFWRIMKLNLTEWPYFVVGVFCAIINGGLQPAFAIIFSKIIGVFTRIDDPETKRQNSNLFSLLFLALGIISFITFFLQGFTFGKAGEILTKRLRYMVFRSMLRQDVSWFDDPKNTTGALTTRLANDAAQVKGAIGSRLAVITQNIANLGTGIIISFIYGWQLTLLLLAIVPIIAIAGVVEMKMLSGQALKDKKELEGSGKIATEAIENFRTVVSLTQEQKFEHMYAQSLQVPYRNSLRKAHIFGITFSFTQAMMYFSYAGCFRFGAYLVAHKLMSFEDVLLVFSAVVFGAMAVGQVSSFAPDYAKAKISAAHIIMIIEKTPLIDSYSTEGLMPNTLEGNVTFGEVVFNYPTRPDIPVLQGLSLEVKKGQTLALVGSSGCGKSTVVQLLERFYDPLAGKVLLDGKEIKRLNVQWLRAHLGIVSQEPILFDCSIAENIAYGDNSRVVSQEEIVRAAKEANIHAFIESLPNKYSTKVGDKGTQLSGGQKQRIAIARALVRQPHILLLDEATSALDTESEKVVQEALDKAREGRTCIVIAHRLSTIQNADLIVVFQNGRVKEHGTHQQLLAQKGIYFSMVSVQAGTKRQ

[2] = biological target: Broad substrate specificity ATP-binding cassette transporter ABCG2 (Homo sapiens, UniProt Q9UNQ0); test: ABCG2 efflux pump inhibitors, dose response, Ig-MXP3 cells, flow cytometry (AID 1690); type: functional
Broad substrate specificity ATP-binding cassette transporter ABCG2, sequence (Q9UNQ0 whole entry): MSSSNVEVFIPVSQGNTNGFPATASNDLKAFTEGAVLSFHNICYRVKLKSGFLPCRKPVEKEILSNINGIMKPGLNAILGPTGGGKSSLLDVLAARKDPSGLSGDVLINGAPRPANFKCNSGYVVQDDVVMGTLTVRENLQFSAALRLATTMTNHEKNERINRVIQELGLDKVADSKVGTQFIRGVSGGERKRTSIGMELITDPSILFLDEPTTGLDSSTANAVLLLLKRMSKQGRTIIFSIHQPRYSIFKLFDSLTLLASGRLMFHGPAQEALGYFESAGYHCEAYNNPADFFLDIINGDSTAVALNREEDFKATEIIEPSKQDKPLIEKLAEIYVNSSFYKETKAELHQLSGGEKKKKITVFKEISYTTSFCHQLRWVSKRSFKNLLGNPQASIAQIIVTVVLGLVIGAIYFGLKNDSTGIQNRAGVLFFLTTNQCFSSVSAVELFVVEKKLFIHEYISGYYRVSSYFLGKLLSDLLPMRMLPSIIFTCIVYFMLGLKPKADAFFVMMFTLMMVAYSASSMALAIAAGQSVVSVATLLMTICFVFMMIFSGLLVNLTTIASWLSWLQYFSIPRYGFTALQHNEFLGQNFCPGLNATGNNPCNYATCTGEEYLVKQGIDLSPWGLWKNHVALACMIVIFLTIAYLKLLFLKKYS

Beta-lactamase [3] = biological target: Beta-lactamase (Salmonella choleraesuis (strain SC-B67), UniProt Q5J463); test: Epi-absorbance-based counterscreen for selective VIM-2 inhibitors: dose response biochemical high throughput screening assay to identify inhibitors of TEM-1 serine-beta-lactamase.
Beta-lactamase (Salmonella choleraesuis (strain SC-B67), UniProt Q5J463), sequence (Q5J463 whole entry): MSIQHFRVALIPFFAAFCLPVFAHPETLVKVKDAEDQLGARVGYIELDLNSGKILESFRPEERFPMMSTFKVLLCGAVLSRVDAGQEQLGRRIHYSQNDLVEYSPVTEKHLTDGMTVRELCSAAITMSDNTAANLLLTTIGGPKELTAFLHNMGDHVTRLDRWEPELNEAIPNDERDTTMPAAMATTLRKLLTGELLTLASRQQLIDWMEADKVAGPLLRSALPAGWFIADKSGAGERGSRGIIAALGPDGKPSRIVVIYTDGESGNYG

Beta-lactamase [4] = biological target: T1, Beta-lactamase (Pseudomonas aeruginosa, UniProt Q79MP6); test: IMP-1 metallo-beta-lactamase inhibitors, dose response, selectivity assay for VIM-2 inhibitor project, biochemical, epi-absorbance (AID 1920)
T1 sequence (Q79MP6 whole entry): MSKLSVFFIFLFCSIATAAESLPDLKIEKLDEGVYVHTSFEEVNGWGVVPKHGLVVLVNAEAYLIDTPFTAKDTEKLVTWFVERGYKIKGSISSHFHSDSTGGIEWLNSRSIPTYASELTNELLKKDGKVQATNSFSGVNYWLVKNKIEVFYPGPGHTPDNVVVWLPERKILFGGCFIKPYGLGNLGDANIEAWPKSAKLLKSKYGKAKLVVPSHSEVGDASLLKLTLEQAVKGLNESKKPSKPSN

Beta-lactamase [5] = biological target: T1, Beta-lactamase; test: […] counterscreen for selective VIM-2 inhibitors: dose response biochemical high throughput screening assay to identify inhibitors of IMP-1 metallo-beta-lactamase.
[6] = biological target: T2, Sentrin-specific protease 1 (Homo sapiens, UniProt Q9P0U3); test: potency of human SENP1 inhibitors, dose response, biochemical, kinetic FRET (AID 651697); type: functional; conditions: read-out: IC50_Mean
T2 sequence (Q9P0U3 whole entry, the tested form may be a part): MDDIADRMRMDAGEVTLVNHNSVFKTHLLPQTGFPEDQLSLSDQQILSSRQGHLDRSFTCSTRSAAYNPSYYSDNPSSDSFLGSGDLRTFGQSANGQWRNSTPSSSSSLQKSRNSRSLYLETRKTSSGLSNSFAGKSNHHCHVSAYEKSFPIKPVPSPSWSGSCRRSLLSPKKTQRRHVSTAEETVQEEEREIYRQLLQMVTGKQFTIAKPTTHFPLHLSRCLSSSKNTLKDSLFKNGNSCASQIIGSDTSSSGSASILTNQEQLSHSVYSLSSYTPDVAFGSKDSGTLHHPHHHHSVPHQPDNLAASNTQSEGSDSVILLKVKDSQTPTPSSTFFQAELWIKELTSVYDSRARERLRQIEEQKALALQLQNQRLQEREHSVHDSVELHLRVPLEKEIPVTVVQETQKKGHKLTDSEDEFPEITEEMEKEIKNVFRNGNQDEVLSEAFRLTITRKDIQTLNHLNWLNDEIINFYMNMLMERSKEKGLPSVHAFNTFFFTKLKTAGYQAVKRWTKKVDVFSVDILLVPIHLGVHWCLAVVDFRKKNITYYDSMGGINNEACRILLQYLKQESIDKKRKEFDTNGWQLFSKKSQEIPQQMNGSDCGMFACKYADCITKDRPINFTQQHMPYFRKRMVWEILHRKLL

[7] = biological target: T2, Sentrin-specific protease 1; test: Dose response confirmation of small molecule inhibitors of the catalytic domain of the SUMO protease, SENP1 in a FRET assay.; type: functional; conditions: read-out: IC50_Mean
[8] = inhibitors of firefly luciferase expression or activity, dose response, H4 neuroglioma cells, luminescence (AID 1990); type: functional, cell-based
[9] = test system: Streptococcus sp. 'group A'; test: growth inhibition of control SK(-) GAS strain, dose response, counter-screen for streptokinase expression inhibitor project, luminescence, kanamycin, BacTiterGlo, confirmation (AID 1900); type: functional, organism-based
[10] = Luminescence Cell-Based Dose Response HTS to Identify Inhibitors of 5'UTR Stem-Loop Driven Prion Protein mRNA Translation in H4 Neuroglioblastoma Cells. [Related pubchem assays: 1827 (Project Summary), 1813 (Primary HTS)]; type: functional
[11] = inhibitors of SNCA 5'UTR-driven reporter translation, confirmation, H4 neuroglioma cells, luminescence (AID 1988); type: functional, cell-based
Streptokinase A = biological target: T3, Streptokinase A (Streptococcus pyogenes serotype M1, UniProt P10520); test: S. pyogenes streptokinase expression inhibitors, potency, dose response, plasminogen activation absorbance, OD405 (AID 1914); type: functional, Streptococcus pyogenes M1 GAS;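 also: secreted streptokinase activity via plasminogen activation per viability signal from cell pellet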
T3 sequence (P10520 whole entry): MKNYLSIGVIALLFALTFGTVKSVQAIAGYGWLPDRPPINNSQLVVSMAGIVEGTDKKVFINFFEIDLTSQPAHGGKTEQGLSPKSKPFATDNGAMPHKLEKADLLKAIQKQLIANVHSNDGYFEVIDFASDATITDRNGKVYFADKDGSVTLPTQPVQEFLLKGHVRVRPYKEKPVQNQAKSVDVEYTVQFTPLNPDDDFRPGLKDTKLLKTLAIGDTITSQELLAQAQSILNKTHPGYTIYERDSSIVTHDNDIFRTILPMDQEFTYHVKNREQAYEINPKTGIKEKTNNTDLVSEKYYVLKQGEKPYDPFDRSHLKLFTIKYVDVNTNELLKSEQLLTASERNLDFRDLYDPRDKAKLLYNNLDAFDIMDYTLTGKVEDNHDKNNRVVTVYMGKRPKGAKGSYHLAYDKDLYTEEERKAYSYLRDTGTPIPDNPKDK

Streptococcus = test: Group A Streptococcus viability loss, dose response, counter-screen for streptokinase expression inhibitor project, luminescence, BacTiterGlo (AID 1915); type: functional, organism-based;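 also: potency for reduction of bacterial viability or growth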
Cytochrome P450 2C19 = Cytochrome P450 2C19 (Homo sapiens, UniProt P33261); test: Cytochrome panel assay with activity outcomes. Panel member name: p450-cyp2c19 Compounds with AC50 equal or less than 10 uM are considered active; type: functional
Cytochrome P450 2C19, sequence (P33261 whole entry): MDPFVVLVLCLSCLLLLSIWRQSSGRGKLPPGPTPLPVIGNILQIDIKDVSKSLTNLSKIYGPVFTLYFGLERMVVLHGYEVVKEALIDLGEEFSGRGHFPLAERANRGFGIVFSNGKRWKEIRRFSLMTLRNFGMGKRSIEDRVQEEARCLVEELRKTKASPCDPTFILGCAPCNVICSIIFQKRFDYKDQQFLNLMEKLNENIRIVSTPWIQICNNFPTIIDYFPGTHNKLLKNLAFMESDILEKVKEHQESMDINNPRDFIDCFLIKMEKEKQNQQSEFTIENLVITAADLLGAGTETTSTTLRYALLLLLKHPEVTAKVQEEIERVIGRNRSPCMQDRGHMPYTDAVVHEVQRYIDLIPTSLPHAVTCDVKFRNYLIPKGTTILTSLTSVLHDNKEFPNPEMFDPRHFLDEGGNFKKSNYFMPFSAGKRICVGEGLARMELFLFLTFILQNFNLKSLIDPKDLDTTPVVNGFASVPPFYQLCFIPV

BJ = test: cytotoxicity toward Ras-transformed BJeLR fibroblasts, dose response, cell-based, alamar blue fluorescence, cherrypicked samples (AID 2631); type: functional; conditions: Homo sapiens;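 also: confirmatory dose-response assay in RAS-dependent BJ fibroblasts engineered with TERT, LT and ST, with cytotoxicity read by fluorescence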
[12] = biological target: T4, Low molecular weight phosphotyrosine protein phosphatase (Homo sapiens, UniProt P24666); type: functional; conditions: read-out: IC50_Mean
T4 sequence (P24666 whole entry): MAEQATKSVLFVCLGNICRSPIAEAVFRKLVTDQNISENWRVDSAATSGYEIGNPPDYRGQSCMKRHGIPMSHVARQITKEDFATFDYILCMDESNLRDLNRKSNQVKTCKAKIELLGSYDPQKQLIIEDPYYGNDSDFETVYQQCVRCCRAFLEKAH

[13] = biological target: T4, Low molecular weight phosphotyrosine protein phosphatase; type: functional; conditions: read-out: IC50_Mean; remark: listed apart in the source
[14] = inhibitors of PGC1a acetylation in cells, dose response, cell-based, cherry-picked samples (AID 720514); type: functional;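 also: potency may reflect raised or lowered acetylation signal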
[15] = HeLa 2N DNA content increase, dose response, cell-based, IC50 (AID 1117349); type: functional
[16] = HeLa 4N DNA content increase, dose response, cell-based, IC50 (AID 1117351); type: functional
Cytochrome P450 2D6 = Cytochrome P450 2D6 (Homo sapiens, UniProt P10635);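 also: CYP2D6 member of a cytochrome P450 panel assay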
Cytochrome P450 2D6, sequence (P10635 whole entry): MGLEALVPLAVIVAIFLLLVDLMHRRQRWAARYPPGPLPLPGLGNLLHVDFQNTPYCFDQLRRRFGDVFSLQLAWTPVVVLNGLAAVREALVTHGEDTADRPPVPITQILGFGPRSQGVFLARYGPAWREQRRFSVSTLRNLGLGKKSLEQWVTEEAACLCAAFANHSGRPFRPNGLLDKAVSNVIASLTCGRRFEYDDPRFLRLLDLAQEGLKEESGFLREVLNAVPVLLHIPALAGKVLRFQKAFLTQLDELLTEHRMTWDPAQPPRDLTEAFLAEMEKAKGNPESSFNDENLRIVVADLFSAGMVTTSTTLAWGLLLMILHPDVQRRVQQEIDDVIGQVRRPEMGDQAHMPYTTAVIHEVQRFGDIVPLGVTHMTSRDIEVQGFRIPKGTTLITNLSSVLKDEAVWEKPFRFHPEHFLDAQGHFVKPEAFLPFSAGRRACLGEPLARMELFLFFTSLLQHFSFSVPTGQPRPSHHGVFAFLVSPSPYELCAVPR

Cytochrome P450 1A2 = biological target: T5, Cytochrome P450 1A2 (Homo sapiens, UniProt P05177);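 also: PubChem cytochrome P450 panel assay, CYP1A2 panel member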
T5 sequence (P05177 whole entry): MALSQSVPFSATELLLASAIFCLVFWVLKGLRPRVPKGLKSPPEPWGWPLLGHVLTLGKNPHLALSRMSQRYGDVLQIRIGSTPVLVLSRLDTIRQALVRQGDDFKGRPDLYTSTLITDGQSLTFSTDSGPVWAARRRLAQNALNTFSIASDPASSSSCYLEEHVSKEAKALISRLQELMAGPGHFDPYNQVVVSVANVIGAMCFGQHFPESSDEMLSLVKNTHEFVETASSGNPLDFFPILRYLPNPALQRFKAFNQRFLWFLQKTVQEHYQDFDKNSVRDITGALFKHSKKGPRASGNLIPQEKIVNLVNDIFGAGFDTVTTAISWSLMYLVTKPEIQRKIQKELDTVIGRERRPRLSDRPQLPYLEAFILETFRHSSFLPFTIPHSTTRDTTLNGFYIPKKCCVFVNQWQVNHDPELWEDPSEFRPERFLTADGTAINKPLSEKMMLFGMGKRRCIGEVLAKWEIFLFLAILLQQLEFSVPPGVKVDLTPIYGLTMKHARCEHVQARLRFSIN

Cytochrome P450 2C9 = Cytochrome P450 2C9 (Homo sapiens, UniProt P11712)
Cytochrome P450 2C9, sequence (P11712 whole entry): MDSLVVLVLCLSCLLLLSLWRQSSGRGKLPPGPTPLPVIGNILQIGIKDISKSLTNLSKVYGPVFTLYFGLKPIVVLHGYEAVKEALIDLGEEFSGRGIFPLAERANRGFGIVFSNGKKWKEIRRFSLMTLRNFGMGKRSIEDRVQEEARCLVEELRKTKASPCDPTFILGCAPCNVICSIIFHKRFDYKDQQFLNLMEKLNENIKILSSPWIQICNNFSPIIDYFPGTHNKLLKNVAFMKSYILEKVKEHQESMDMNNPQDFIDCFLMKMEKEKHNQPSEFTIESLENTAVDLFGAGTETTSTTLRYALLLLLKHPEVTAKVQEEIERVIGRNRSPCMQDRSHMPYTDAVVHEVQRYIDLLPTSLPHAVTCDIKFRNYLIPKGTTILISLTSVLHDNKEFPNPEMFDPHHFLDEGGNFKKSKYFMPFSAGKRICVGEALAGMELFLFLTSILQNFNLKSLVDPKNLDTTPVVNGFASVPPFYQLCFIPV

Protein S100-A4, sequence (P26447 whole entry): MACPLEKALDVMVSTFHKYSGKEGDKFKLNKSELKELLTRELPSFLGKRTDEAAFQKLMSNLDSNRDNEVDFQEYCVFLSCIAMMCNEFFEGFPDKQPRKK

CC1(C)c2ccccc2N2CC(=O)N(CC(N)=O)C21C (centres undefined)
AC50 (Protein S100-A4): 1.93 µM (active)

COc1ccc(CN2C(=O)c3ccccc3C2=O)cc1C(=O)Nc1ccccc1N1CCOCC1
EC50 [1]: 0.428 µM (active)
EC50 [2]: 0.34 µM (inactive)

Cc1ccc(S(=O)(=O)n2[nH]c(=O)cc2NC(=O)c2cccs2)cc1
IC50 (Beta-lactamase [3]): > 59.6 µM (inactive)
IC50 (Beta-lactamase [4]): > 59.6 µM (inactive)
IC50 (Beta-lactamase [5]): > 59.6 µM (inactive)

N=c1oc2ccc([N+](=O)[O-])cc2cc1C(=O)NCc1ccccc1
IC50 [6]: 9.4 µM (active)
IC50 [7]: 2.45 µM (active)

CCc1nc(N)nc(N)c1-c1ccc(Cl)cc1 [PYRIMETHAMINE]
EC50 [8]: 3.81 µM (active)
EC50 [9]: 3.09 µM (active)
EC50 [10]: 10.5 µM (active)
EC50 [11]: 0.2 µM (active)
EC50 (Streptokinase A): > 150 µM (not active)
EC50 (Streptococcus): 51.2 µM (active)
AC50 (Cytochrome P450 2C19): inactive
EC50 (BJ): > 133 µM (inactive)
IC50 [12]: 32.9 µM (inactive)
IC50 [13]: 16.5 µM (active)
AC50 [14]: 23 µM (active)
IC50 [15]: > 10 µM (inactive)
IC50 [16]: > 10 µM (inactive)
AC50 (Cytochrome P450 2D6): 7.94 µM (inconclusive)
AC50 (Cytochrome P450 1A2): 10 µM (inconclusive)
AC50 (Cytochrome P450 2C9): inactive
